Data taken from patent publication US20120034164A1, “TRUNCATED CAR PEPTIDES AND METHODS AND COMPOSITIONS USING TRUNCATED CAR PEPTIDES” (Sanford-Burnham Medical Research Institute California, priority 2010, published 2012).
Where a SMILES comes first, the peptide text is derived from it. Bridges are numbered along the chain shown (N, C = ends). Roman numbers before positions name the chains, in order. Primed or numbered codes have the meaning given here. Where no end group is shown, it is not given here. The star is where a group is joined. 5FAM = O=C1OC2(c3ccc(O)cc3Oc3cc(O)ccc32)c2ccc(C(=O)*)cc21; 5FAM″ = 5-carboxyfluorescein label

Columns and labels:
[1] = test system: monocrotaline-induced PAH lesions; test: Peptide homing to lungs in monocrotaline-induced PAH rats (anti-FITC immunohistochemistry); assay type: in vivo, rat; settings: for accumulation of peptide in the PAH lungs: 2 hours after injection; for accumulation in the kidney: MCT-treated PAH rats and untreated healthy animals
Procedure: Monocrotaline (Sigma-Aldrich, St. Louis, Mo.) was dissolved in 0.3 M hydrochloride solution and neutralized with 0.3 M sodium hydroxide solution, and adjusted pH around 7.0. Adult male Sprague-Dawley rats (150-200 g, Harlan Laboratories, Indianapolis, Ind.) were administered with a single subcutaneous injection of monocrotaline solution at a dose of 60 mg/kg body weight, while control rats were administered with 0.9% saline (Bader, M. Rat models of cardiovascular diseases. Methods Mol Biol 597, 403-14 (2010)). Rats were randomly selected and studied for peptide targeting studies on 1, 3, 7, 14 or 21 days after the treatment of monocrotaline.
(§1) The following peptides were labeled with 5-carboxyfluorescein (FAM) and used for the lung targeting studies: CAR, CARSKNKDC (SEQ ID NO:147); VCAM1, CVHSPNKKCGGSK (SEQ ID NO:13); CG7C control CGGGGGGGC (SEQ ID NO:14); CAR mutant (CAR-M), CAQSNNKDC (SEQ ID NO:15). Peptides were dissolved in PBS at the concentrations of 0.5 mg/mL. Hypertensive rats were injected with peptide solution through tail vein (3.3 mg/kg). At 2 hours after the injection, rats were perfused with PBS containing 1% bovine serum albumin under the deep anesthesia and tissues were fixed by systemic perfusion with 10% buffered formalin. The organs were excised and fixed for additional 24 hours and processed for anti-fluorescein immunohistochemistry.
To determine the localization of the peptides, paraffin-embedded tissue sections were immunostained with rabbit anti-fluoroscein isothiocyanate (FITC) antibody (Invitrogen, Carlsbad, Calif.) followed by horseradish peroxidase-labeled anti-rabbit IgG secondary antibody. The peptide localization was then visualized by DAB. Sections were counter stained with hematoxylin to visualize the region of cells. An automated staining system, Discovery XT (Ventana, Tucson, Ariz.) was used for the staining. To examine the co-localization of the peptides with macrophages or alveolar type II cells, tissue sections were doubly stained with rabbit anti-FITC antibody and mouse anti-rat-CD68 antibody; EDI (Serotec, Raleigh, N.C.) or rabbit anti-Prosurfactant Protein C (proSP-C, Millipore, Temecula, Calif.), respectively. For FITC/proSP-C double staining, FITC staining was completed first. The tissues sections were then treated withcitrate buffer (pH 6.0) at 98° C. for 10 min before proceeding to proSP-C staining. Biotinylated species-specific secondary antibodies and alkaline phosphatase-labeled streptavidin (Vector Laboratories, Burlingame, Calif.) were used to visualize macrophages and alveolar type II cells with Permanent Red (Dako, Carpinteria, Calif.).
Images of stained slides were observed and captured with ECLIPSE 90i or 80i microscope with CCD camera DS-5M (Nikon Instruments, Melville, N.Y.). To quantify the targeting efficiency of the peptides to the lung, the immunostained sections were scanned by Aperio Scanscope XT and analyzed using ImageScope software (Aperio Technologies, Vista, Calif.). For the quantification of area and density of peptide staining, the Aperio Color Deconvolution tool was used to compare total peptide positive area and intensity of peptide staining in each animal. The thresholds were set empirically for strong, medium, and weak staining. The area of each level of staining was presented as percent of such area in the total cell area. The total stained area was normalized by hematoxylin stained area of same regions.
A rat model of monocrotaline (MCT)-induced pulmonary arterial hypertension was used for this study. Briefly, male Sprague-Dawley rats (150-200 g, Harlan Laboratories, IN) were administered with a single subcutaneous injection of monocrotaline at 60 mg/kg (Sigma-Aldrich, MO), while control rats administered 0.9% saline. Rats were randomly selected and studied for peptide distribution studies on 1, 3, 7, 14 or 21 days after the treatment of monocrotaline. […]

4T1 tumors = test: In vivo tumor homing of FAM-labeled peptides (confocal imaging); settings: 200 μL of 1 mM FAM-peptide i.v.
Procedure: Mice bearing orthotopic tumors generated with 4T1 mouse breast cells were intravenously injected with the 200 μL of 1 mM fluorescamine (FAM)-conjugated CAR peptide. The circulation time was 1 hour.
Confocal images of sections of the tumor and normal organs from mice injected with the 200 μL of 1 mM FAM-tCAR peptide. The circulation time was 2 hours.
Confocal images of sections of the tumor and normal organs from mice injected with the 200 μL of 1 mM FAM-ARSKNK peptide. The circulation time was 1 hour.
Confocal images of sections of the tumor and normal organs from mice injected with the 200 μL of 1 mM FAM-KNKSRAC-CARSKNK peptide (SEQ ID NO:4). The circulation time was 1 hour.

mitochondrial membranes = settings: at a concentration of 10 μM; cited from earlier work
[2] = test system: SU5416/hypoxia-induced PAH lesions; assay type: in vivo, rat
Procedure: Adult male Sprague-Dawley rats (approx. 200 g) were injected subcutaneously with SU5416 (20 mg/kg body weight; SUGEN Inc, South San Francisco, Calif.), which was suspended in carboxymethylcellulose (0.5% carboxymethylcellulose sodium, 0.9% sodium chloride, 0.4% polysorbate, 0.9% benzyl alcohol in deionized water). The rats were then exposed to chronic hypoxia in a hypobaric chamber (barometric pressure, 410 mm Hg: inspired O2 tension, 76 mm Hg) for 3 weeks followed by an additional 6 weeks of reexposure to normoxia. Rats were examined at 9 weeks after the injection of SU5416 when they develop severe occlusive pulmonary arterial lesions (Abe, K. et al. Formation of plexiform lesions in experimental severe pulmonary arterial hypertension. Circulation 121, 2747-54 (2010)).
as §1, with “CVHSPNKKCGGSK” left out, “The organs were excised and fixed for additional 24 hours and processed for anti-fluorescein immunohistochemistry.” left out

[3] = MCT-treated rats, FAM-peptide 3.3 mg/kg i.v.

CVHSPNKKCGGSK (CVHSPNKKCGGSK-{5FAM″}; cysteine pairing not given here) [VCAM-1 binding peptide]
accumulation of peptide in the PAH lungs [1, 3]: accumulated in the PAH lungs to a similar extent to CAR | accumulation of peptide in healthy normal lung ([1]; non-MCT-treated rats, FAM-peptide 3.3 mg/kg i.v., 2 hours): a fair amount

CARSKNK (also: FAM label, position not given here) [tCAR]
accumulation in normal tissues (4T1 tumors; circulation time 2 hours): not detectable accumulation | spreading within tumor tissue (4T1 tumors; circulation time 2 hours): wider spreading within tumor tissue than CAR

KNKSRAC-CARSKNK (disulfide I:7-II:1 (inferred); not fully specified (N-terminus); also: FAM label, position not given here) [dimeric tCAR]
accumulation in tumor tissue (4T1 tumors; circulation time 1 hour): less tumor accumulation than the monomeric tCAR peptide

C[C@@H]1NC(=O)[C@@H](NC(=O)c2ccc3c(c2)C(=O)OC32c3ccc(O)cc3Oc3cc(O)ccc32)CSSC[C@@H](C(=O)O)NC(=O)[C@H](CC(=O)O)NC(=O)[C@H](CCCCN)NC(=O)[C@H](CC(N)=O)NC(=O)[C@H](CCCCN)NC(=O)[C@H](CO)NC(=O)[C@H](CCCNC(=N)N)NC1=O [CAR, CARSKNKDC] (5FAM-CARSKNKDC-OH; disulfide 1-9)
accumulation in the kidney [1]: accumulation in the kidney was observed | accumulation in other organs ([1]; MCT-treated rats, organs other than lung, except kidney): absent or very weak

CGGGGGGGC (5FAM-CGGGGGGGC; cysteine pairing not given here) [CG7C]
accumulation in the kidney [1]: also accumulated in the kidney | accumulation of peptide in the PAH lungs [1, 3]: only very weak staining

D(KLAKLAK)2 (KLAKLAKKLAKLAK; D-amino acids; membrane perturbing molecule)
mitochondrial swelling (mitochondrial membranes): marked mitochondrial swelling

ARSKNK (5FAM-ARSKNK)
accumulation in tumor tissue (4T1 tumors; circulation time 1 hour): Little ARSKNK peptide accumulated in the tumor tissue | fluorescence in the heart (4T1 tumors; circulation time 1 hour): some fluorescence was detected in the heart

CAQSNNKDC (cysteine pairing not given here; also: labelled with FAM, site not given here) [CAR-M]
accumulation of peptide in PAH lungs / PAH lesion ([2]; 9 weeks after SU5416, FAM-peptide 3.3 mg/kg i.v., 2 hours): only negligible signal | detection in remodeled arteries from lung tissue ([2]; peptide 1 mg/300 g rat i.v. in hemodynamic study, anti-fluorescein staining): not
